{"source": "paper PMC8766756", "about": "“Insights on Cancer Cell Inhibition, Subcellular Activities, and Kinase Profile of Phenylacetamides Pending 1H-Imidazol-5-One Variants” (Frontiers in Pharmacology, 2022)", "key": {"[1]": {"molecular_target": "T1, Ret (P07949) (Homo sapiens, UniProt P07949)", "T1 construct": "purchased PamGene (PamChip PTK array, Upstream Kinase Analysis)", "T1 sequence (P07949 29-1114)": "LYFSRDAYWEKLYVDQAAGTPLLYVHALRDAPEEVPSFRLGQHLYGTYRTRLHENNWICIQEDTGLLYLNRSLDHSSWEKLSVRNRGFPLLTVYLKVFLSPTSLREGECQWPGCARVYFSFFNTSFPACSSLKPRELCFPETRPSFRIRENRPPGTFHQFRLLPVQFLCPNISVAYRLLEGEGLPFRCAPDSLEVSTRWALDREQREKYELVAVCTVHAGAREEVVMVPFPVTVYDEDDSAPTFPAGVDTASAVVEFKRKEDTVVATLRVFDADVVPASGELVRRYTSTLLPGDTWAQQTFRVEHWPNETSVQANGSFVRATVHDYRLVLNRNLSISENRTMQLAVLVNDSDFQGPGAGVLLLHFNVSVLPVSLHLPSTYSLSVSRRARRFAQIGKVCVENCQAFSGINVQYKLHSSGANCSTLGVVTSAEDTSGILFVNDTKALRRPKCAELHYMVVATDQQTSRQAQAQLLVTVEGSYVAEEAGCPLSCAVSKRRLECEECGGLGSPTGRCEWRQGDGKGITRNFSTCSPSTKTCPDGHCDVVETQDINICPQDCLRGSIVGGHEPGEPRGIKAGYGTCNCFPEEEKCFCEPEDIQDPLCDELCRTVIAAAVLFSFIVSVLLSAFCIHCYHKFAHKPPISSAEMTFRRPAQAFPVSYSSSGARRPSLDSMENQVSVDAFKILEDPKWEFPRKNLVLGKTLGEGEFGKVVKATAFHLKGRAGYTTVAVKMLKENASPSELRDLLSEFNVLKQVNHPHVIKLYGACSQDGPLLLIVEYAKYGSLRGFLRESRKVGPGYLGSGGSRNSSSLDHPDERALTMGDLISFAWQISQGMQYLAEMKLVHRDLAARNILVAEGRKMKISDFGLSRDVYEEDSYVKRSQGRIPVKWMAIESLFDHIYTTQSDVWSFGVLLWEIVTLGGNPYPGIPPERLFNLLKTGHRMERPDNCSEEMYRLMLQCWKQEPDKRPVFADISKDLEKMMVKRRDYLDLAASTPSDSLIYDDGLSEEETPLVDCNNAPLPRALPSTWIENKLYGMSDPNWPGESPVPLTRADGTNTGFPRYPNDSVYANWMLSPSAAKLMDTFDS", "test": "PamChip tyrosine kinase microarray", "assay_type": "biochemical", "details": "0.1 µM, HL60 lysate", "in_short": "(§1)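 HL60 (AML) cell lysate was spiked with compound at 0.001, 0.01, 0.1, 1, 10 and 50 µM, or 2% v/v DMSO as control, then profiled in technical replicates on a tyrosine kinase peptide array of 196 phosphosites. Kinase activity was inferred from peptide-set changes using an upstream kinase tool.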"}, "[2]": {"molecular_target": "T2, FGFR1 (P11362) (Homo sapiens, UniProt P11362)", "T2 construct": "purchased PamGene (PamChip PTK array, Upstream Kinase Analysis)", "T2 sequence (P11362 22-822)": "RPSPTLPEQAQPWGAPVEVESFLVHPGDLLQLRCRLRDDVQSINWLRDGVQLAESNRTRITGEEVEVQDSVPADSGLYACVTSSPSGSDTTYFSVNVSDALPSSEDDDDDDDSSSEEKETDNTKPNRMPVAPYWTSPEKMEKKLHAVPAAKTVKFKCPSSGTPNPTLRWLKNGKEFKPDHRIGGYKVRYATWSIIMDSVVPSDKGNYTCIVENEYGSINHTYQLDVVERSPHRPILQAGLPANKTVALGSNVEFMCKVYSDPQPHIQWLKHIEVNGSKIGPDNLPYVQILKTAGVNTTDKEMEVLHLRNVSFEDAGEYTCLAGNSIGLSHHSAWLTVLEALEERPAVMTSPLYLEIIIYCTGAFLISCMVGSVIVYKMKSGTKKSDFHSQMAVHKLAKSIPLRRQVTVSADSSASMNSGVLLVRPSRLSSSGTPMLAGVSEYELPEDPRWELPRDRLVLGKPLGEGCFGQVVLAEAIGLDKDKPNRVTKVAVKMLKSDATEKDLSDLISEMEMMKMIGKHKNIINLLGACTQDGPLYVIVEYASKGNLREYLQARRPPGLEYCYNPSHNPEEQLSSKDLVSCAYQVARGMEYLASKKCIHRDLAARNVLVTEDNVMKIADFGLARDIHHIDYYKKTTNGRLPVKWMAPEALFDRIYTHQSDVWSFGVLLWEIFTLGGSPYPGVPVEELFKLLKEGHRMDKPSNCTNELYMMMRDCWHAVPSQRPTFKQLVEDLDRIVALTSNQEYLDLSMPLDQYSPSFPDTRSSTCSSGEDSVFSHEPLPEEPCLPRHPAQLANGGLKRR", "test": "PamChip tyrosine kinase microarray", "assay_type": "biochemical", "details": "0.1 µM, HL60 lysate", "in_short": "as §1"}, "[3]": {"molecular_target": "T3, ZAP70 (P43403) (Homo sapiens, UniProt P43403)", "T3 construct": "purchased PamGene (PamChip PTK array, Upstream Kinase Analysis)", "T3 sequence (P43403 1-619)": "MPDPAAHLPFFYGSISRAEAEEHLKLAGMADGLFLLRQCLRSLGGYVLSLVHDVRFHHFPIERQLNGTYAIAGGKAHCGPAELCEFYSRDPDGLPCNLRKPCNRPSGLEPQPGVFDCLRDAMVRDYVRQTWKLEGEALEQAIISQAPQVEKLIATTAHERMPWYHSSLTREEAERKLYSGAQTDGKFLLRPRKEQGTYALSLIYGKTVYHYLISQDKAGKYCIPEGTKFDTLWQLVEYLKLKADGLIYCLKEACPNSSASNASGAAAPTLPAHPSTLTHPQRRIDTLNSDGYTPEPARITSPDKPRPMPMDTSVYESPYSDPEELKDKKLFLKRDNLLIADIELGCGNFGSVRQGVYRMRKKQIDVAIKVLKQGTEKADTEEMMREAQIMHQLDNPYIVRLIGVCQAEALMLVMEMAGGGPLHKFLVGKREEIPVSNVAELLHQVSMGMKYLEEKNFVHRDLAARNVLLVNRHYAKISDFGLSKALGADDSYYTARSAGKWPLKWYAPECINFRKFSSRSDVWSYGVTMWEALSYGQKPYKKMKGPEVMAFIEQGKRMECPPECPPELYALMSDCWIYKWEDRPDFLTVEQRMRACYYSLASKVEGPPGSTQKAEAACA", "test": "PamChip tyrosine kinase microarray", "assay_type": "biochemical", "details": "0.1 µM, HL60 lysate", "in_short": "as §1"}, "[4]": {"molecular_target": "T4, HCK (P08631) (Homo sapiens, UniProt P08631)", "T4 construct": "purchased PamGene (PamChip PTK array, Upstream Kinase Analysis)", "T4 sequence (P08631 whole entry)": "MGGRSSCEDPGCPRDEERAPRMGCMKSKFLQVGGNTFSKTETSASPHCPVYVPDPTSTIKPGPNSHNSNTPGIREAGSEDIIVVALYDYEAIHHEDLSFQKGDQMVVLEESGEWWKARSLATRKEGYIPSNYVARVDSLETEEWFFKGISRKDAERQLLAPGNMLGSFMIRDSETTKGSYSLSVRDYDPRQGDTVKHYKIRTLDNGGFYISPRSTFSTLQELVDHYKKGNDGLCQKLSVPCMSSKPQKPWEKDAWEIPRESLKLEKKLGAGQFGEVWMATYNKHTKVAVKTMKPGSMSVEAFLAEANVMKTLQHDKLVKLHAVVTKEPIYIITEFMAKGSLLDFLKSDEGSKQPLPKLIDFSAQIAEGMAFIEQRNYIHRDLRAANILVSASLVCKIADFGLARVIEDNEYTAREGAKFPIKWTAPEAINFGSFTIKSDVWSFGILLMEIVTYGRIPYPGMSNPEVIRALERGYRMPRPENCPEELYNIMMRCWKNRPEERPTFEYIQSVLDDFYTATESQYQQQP", "test": "PamChip tyrosine kinase microarray", "assay_type": "biochemical", "details": "0.1 µM, HL60 lysate", "in_short": "as §1"}, "[5]": {"system": "HCT116 cells", "test": "Cytotoxic assay in presence of antioxidant N-acetylcysteine", "assay_type": "cell-based", "details": "48 h, MTT", "description": "Oxidative stress expressed as the reactive oxygen species (ROS) level is an important marker in cell death under the effect of certain cytotoxic drugs. Elevation of ROS may occur as a direct mechanism of some drugs such as Adriamycin ([Kim et al., 2019]) and trans-cinnamaldehyde ([Afanas’ev, 2011]; [Ka et al., 2003]) (safe covalent natural compound) or indirectly by the modulation of certain cellular contents ([Teppo et al., 2017]; [Perillo et al., 2020]). The involvement of ROS elevation and oxidative stress in the cytotoxic activities of KIM-161 on HCT116 was assessed. In this assay, the antioxidant N-acetylcysteine (NAC) was added at a very high concentration (5 mM) to check if it reverses the cytotoxic activities of KIM-161 on HCT116.\nFIGURE 10 Effect of antioxidant pretreatment on viability of HCT116 treated with KIM-161. […] Cell viability was expressed as a percentage of vehicle control and was measured by the MTT assay (average of two independent experiments). Statistical significance was determined by two-way ANOVA using Šídák’s multiple comparisons test. * = p < 0.05; *** = p ≤ 0.001; **** = p < 0.0001.\nHCT116 cells were seeded at a density of 5 × 10^4 cells/well in 96-well plates and left overnight to adhere. […] Cell viability was expressed as a percentage of the vehicle control (1% v/v ethanol) and was assessed using the MTT assay (data are expressed as mean ± SEM). […]"}}, "note": "Where “and” joins values, the source holds several entries; their conditions need not be identical. Identical values can stand only once.", "data": [{"smiles": "COc1ccc(/C=C2\\N=C(C)N(c3ccc(CC(=O)NCc4ccccc4)cc3)C2=O)cc1", "note": "[Compound 4c, (Z)-N-Benzyl-2-(4-(4-(4-methoxybenzylidene)-2-methyl-5-oxo-4,5-dihydro-1H-imidazol-1-yl)phenyl)acetamide]", "values": [{"measurement": "Mean Significance Score", "setting": "[1]", "result": 2.048}, {"measurement": "Mean Specificity Score", "setting": "[1]", "result": 1.108}, {"measurement": "Mean Final score (Kinase score)", "setting": "[1]; listed as KIM-161", "result": "3.14 and 3.143"}, {"measurement": "Mean Final score (Kinase score)", "setting": "[2]", "result": 1.92}, {"measurement": "Mean Kinase Statistic", "setting": "[2]", "result": -0.994}, {"measurement": "Mean Significance Score", "setting": "[2]", "result": 1.619}, {"measurement": "Mean Specificity Score", "setting": "[2]", "result": 0.1511}, {"measurement": "Mean Final score (Kinase score)", "setting": "[3]", "result": 1.771}, {"measurement": "Mean Kinase Statistic", "setting": "[3]", "result": -1.015}, {"measurement": "Mean Significance Score", "setting": "[3]", "result": 1.836}, {"measurement": "Mean Specificity Score", "setting": "[3]", "result": 0.009048}, {"measurement": "Mean Final score (Kinase score)", "setting": "[4]", "result": 1.871}, {"measurement": "Mean Kinase Statistic", "setting": "[4]", "result": -1.0936}, {"measurement": "Mean Significance Score", "setting": "[4]", "result": 1.7269}, {"measurement": "Mean Specificity Score", "setting": "[4]", "result": 0.1451}, {"measurement": "change of cytotoxic effect by NAC addition", "setting": "[5]; HCT116, KIM-161 0.5 µM, NAC 5 mM pretreatment 1 h", "result": "slightly altered"}, {"measurement": "change of cytotoxic effect by NAC addition", "setting": "[5]; HCT116, increasing KIM-161 concentration (1.0, 5.0 µM), NAC 5 mM", "result": "higher involvement of this factor in the anticancer effect"}]}]}
